Values of other authors in patent US20230078230A1, “METHODS FOR THE PRODUCTION OF COMMITTED CARDIAC PROGENITOR CELLS” (FUJIFILM Cellular Dynamics, Inc., priority 2021, published 2023).

Key:
[1] = test system: pluripotent stem cell-derived cardiomyocytes
ROCK1/ROCK2 = details: ROCK1/ROCK2, competing with ATP

Compound	effect on contractile activity [1]	IC50 (ROCK1/ROCK2) [µM]
CC(C)NCC(O)c1ccc(O)c(O)c1 (stereo not shown) [isoprenaline]	positive chronotropic effect	–
C[C@@H](N)[C@H]1CC[C@H](C(=O)Nc2ccncc2)CC1 [Y-27632]	–	0.8
CNC[C@H](O)c1cccc(O)c1 [phenylephrine]	positive chronotropic effect	–
COc1ccc([C@@H]2Sc3ccccc3N(CCN(C)C)C(=O)[C@@H]2OC(C)=O)cc1 [diltiazem]	inhibits contractile activity in a dose-dependent manner	–
